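Compound exposure: 48 hours, 5 concentrations, 96-well plates. Here, GI50 denotes the concentration required for 50% inhibition of growth.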 The source made the active and inactive calls. Cut-off read from the data, not from the text of the source: active = GI50 up to about 1.1 µM and inactive = higher. Square brackets hold non-standard residues; d marks the D form. Peptide text beside a SMILES is read from it. 2Nal = N[CH](Cc1ccc2ccccc2c1)C(=O)O
Experiments:
Assay in all cases: NCI-60 cell line screen, 48 h
[1] = test system: RPMI-8226
[2] = test system: T47D
[3] = test system: SF-539
[4] = test system: Hs-578T
[5] = test system: SK-MEL-5
[6] = test system: UACC-257
[7] = test system: MOLT-4
[8] = test system: UO-31
[9] = test system: MDA-MB-435
[10] = test system: K562
[11] = test system: EKVX
[12] = test system: U-251
[13] = test system: Malme-3M
[14] = test system: UACC-62
[15] = test system: COLO 205
[16] = test system: HL-60
[17] = test system: MDA-MB-231
[18] = test system: HCC 2998
[19] = test system: SR
[20] = test system: RXF 393

Structure (SMILES)	GI50 [1]	GI50 [2]	GI50 [3]	GI50 [4]	GI50 [5]	GI50 [6]	GI50 [7]	GI50 [8]	GI50 [9]	GI50 [10]	GI50 [11]	GI50 [12]	GI50 [13]	GI50 [14]	GI50 [15]	GI50 [16]	GI50 [17]	GI50 [18]	GI50 [19]	GI50 [20]
O=C[C@@H](CO)O[C@H](C=O)n1cnc2c(=O)nc[nH]c21	131 µM (inactive)	60.5 µM (inactive)	490 µM (inactive)	664 µM (inactive)	378 µM (inactive)	378 µM (inactive)	123 µM (inactive)	401 µM (inactive)	243 µM (inactive)	83.9 µM (inactive)	357 µM (inactive)	748 µM (inactive)	301 µM (inactive)	375 µM (inactive)	288 µM (inactive)	65.8 µM (inactive)	128 µM (inactive)	116 µM (inactive)	181 µM (inactive)	239 µM (inactive)
Cc1cc(S(=O)(=O)/N=C(\NN)NCC(=O)NN)c(S)cc1Cl	> 10 µM (inactive)	> 10 µM (inactive)	> 10 µM (inactive)	> 10 µM (inactive)	8.85 µM (inactive)	> 10 µM (inactive)	> 10 µM (inactive)	–	> 10 µM (inactive)	> 10 µM (inactive)	> 10 µM (inactive)	> 10 µM (inactive)	> 10 µM (inactive)	> 10 µM (inactive)	> 10 µM (inactive)	> 10 µM (inactive)	> 10 µM (inactive)	8.73 µM (inactive)	> 10 µM (inactive)	> 10 µM (inactive)
Cc1c(C)n(-c2ccccc2)c2nc(S(C)(=O)=O)nc(S(C)(=O)=O)c12	2.65 µM (inactive)	2.05 µM (inactive)	14 µM (inactive)	16.1 µM (inactive)	12.7 µM (inactive)	1.64 µM (inactive)	1.48 µM (inactive)	1.71 µM (inactive)	1.79 µM (inactive)	1.4 µM (inactive)	5.41 µM (inactive)	5.9 µM (inactive)	1.4 µM (inactive)	3.28 µM (inactive)	1.8 µM (inactive)	1.58 µM (inactive)	5.73 µM (inactive)	23.3 µM (inactive)	1 µM (active)	0.475 µM (active)
O=C(O)C1(Cc2ccc3c(c2)CCC3)Cc2ccccc2C1	71.1 µM (inactive)	49.2 µM (inactive)	> 100 µM (inactive)	73.1 µM (inactive)	> 100 µM (inactive)	> 100 µM (inactive)	71.8 µM (inactive)	46.1 µM (inactive)	> 100 µM (inactive)	56.8 µM (inactive)	54.2 µM (inactive)	65.8 µM (inactive)	71.3 µM (inactive)	76.6 µM (inactive)	30.2 µM (inactive)	35.2 µM (inactive)	> 100 µM (inactive)	41.9 µM (inactive)	> 100 µM (inactive)	68.2 µM (inactive)
Nc1ncc(Cc2ccc3c(c2)OCO3)c(N)n1	> 100 µM (inactive)	91.4 µM (inactive)	> 100 µM (inactive)	> 100 µM (inactive)	> 100 µM (inactive)	> 100 µM (inactive)	> 100 µM (inactive)	> 100 µM (inactive)	> 100 µM (inactive)	> 100 µM (inactive)	> 100 µM (inactive)	> 100 µM (inactive)	> 100 µM (inactive)	> 100 µM (inactive)	> 100 µM (inactive)	73.5 µM (inactive)	> 100 µM (inactive)	5.83 µM (inactive)	> 100 µM (inactive)	> 100 µM (inactive)
C[C@]1(O)CC[C@H]2[C@@H]3CCc4cc(O)ccc4[C@H]3CC[C@@]21C	0.687 µM (active)	38.5 µM (inactive)	0.356 µM (active)	1.19 µM (inactive)	0.391 µM (active)	28.2 µM (inactive)	0.664 µM (active)	8.32 µM (inactive)	0.186 µM (active)	–	1.32 µM (inactive)	4.03 µM (inactive)	0.353 µM (active)	–	7.35 µM (inactive)	0.362 µM (active)	7.23 µM (inactive)	0.233 µM (active)	0.21 µM (active)	0.889 µM (active)
CCc1c(Cc2cc(C)cc(C)c2)n2c(nc1=O)SCC2CBr (stereo not given)	> 50 µM (inactive)	22.6 µM (inactive)	> 50 µM (inactive)	> 50 µM (inactive)	> 50 µM (inactive)	> 50 µM (inactive)	34 µM (inactive)	> 50 µM (inactive)	> 50 µM (inactive)	> 50 µM (inactive)	27 µM (inactive)	24.8 µM (inactive)	12.9 µM (inactive)	> 50 µM (inactive)	> 50 µM (inactive)	> 50 µM (inactive)	19.6 µM (inactive)	> 50 µM (inactive)	> 50 µM (inactive)	> 50 µM (inactive)
O=c1[nH]c(=O)n(C2OC(CO)C(O)C2O)c2c1CCCC2 (stereo not given)	> 100 µM (inactive)	> 100 µM (inactive)	> 100 µM (inactive)	> 100 µM (inactive)	> 100 µM (inactive)	> 100 µM (inactive)	> 100 µM (inactive)	> 100 µM (inactive)	> 100 µM (inactive)	> 100 µM (inactive)	> 100 µM (inactive)	> 100 µM (inactive)	> 100 µM (inactive)	> 100 µM (inactive)	> 100 µM (inactive)	> 100 µM (inactive)	> 100 µM (inactive)	> 100 µM (inactive)	> 100 µM (inactive)	> 100 µM (inactive)
O=c1oc2cc(O)ccc2cc1-c1nc2ccccc2o1	24.3 µM (inactive)	1.07 µM (active)	58.2 µM (inactive)	33.4 µM (inactive)	19.5 µM (inactive)	43.4 µM (inactive)	24.7 µM (inactive)	26.9 µM (inactive)	28.2 µM (inactive)	30.4 µM (inactive)	28.5 µM (inactive)	28.7 µM (inactive)	39.5 µM (inactive)	20 µM (inactive)	30.8 µM (inactive)	23.8 µM (inactive)	35.6 µM (inactive)	39.8 µM (inactive)	30.9 µM (inactive)	< 0.01 µM (active)
CC(C)C(NC(=O)C(CCCCN)NC(=O)C(Cc1c[nH]c2ccccc12)NC(=O)C(Cc1ccc(O)cc1)NC(=O)C(CS)NC(=O)C(N)Cc1ccc2ccccc2c1)C(=O)NC(CS)C(=O)NC(C(N)=O)C(C)O (stereo not given) (H-[2Nal]CYWKVCT-NH2; configuration not given here)	> 12.5 µM (inactive)	> 12.5 µM (inactive)	> 12.5 µM (inactive)	> 12.5 µM (inactive)	> 12.5 µM (inactive)	> 12.5 µM (inactive)	> 12.5 µM (inactive)	> 12.5 µM (inactive)	> 12.5 µM (inactive)	–	> 12.5 µM (inactive)	> 12.5 µM (inactive)	> 12.5 µM (inactive)	> 12.5 µM (inactive)	> 12.5 µM (inactive)	> 12.5 µM (inactive)	> 12.5 µM (inactive)	> 12.5 µM (inactive)	> 12.5 µM (inactive)	> 12.5 µM (inactive)
COc1cc(C2SC(=N)Nc3c2c(C)nn3C(=O)c2ccc(Cl)cc2)cc(OC)c1OC (stereo not given)	> 10 µM (inactive)	> 10 µM (inactive)	> 10 µM (inactive)	> 10 µM (inactive)	> 10 µM (inactive)	> 10 µM (inactive)	> 10 µM (inactive)	–	> 10 µM (inactive)	> 10 µM (inactive)	> 10 µM (inactive)	> 10 µM (inactive)	> 10 µM (inactive)	> 10 µM (inactive)	> 10 µM (inactive)	> 10 µM (inactive)	> 10 µM (inactive)	> 10 µM (inactive)	> 10 µM (inactive)	> 10 µM (inactive)
CC(C)(C)C(=O)/C=C(\OB(F)F)C(C)(C)C	> 100 µM (inactive)	> 100 µM (inactive)	> 100 µM (inactive)	> 100 µM (inactive)	> 100 µM (inactive)	> 100 µM (inactive)	> 100 µM (inactive)	> 100 µM (inactive)	> 100 µM (inactive)	> 100 µM (inactive)	> 100 µM (inactive)	> 100 µM (inactive)	> 100 µM (inactive)	–	> 100 µM (inactive)	> 100 µM (inactive)	> 100 µM (inactive)	> 100 µM (inactive)	84.5 µM (inactive)	> 100 µM (inactive)
CCC(=O)NC(Nc1ccc(O)cc1)(C(F)(F)F)C(F)(F)F	33.3 µM (inactive)	49.4 µM (inactive)	96.4 µM (inactive)	> 100 µM (inactive)	–	37.4 µM (inactive)	42.5 µM (inactive)	35.6 µM (inactive)	25.2 µM (inactive)	33.1 µM (inactive)	> 100 µM (inactive)	73.6 µM (inactive)	42.2 µM (inactive)	40.1 µM (inactive)	–	18.5 µM (inactive)	73.8 µM (inactive)	> 100 µM (inactive)	36.5 µM (inactive)	28.8 µM (inactive)
NCCNc1ccc(NCCN)c2c1C(=O)c1c(O)ccc(O)c1C2=O	0.0106 µM (active)	0.229 µM (active)	0.0219 µM (active)	0.148 µM (active)	0.129 µM (active)	1.06 µM (active)	< 0.001 µM (active)	0.0391 µM (active)	1.15 µM (inactive)	–	0.436 µM (active)	–	0.0671 µM (active)	0.0108 µM (active)	1.08 µM (active)	0.0407 µM (active)	0.681 µM (active)	0.423 µM (active)	< 0.001 µM (active)	0.0719 µM (active)
